Source: patent US7456197B2, “Pyridinium cationic lipids as gene transfer agents” (The Texas A&M University System, priority 2003, dated 2008)
“Also recorded” adds a separate entry of the source.

Experiments:
[1] = Critical (phase transition) temperature Tc by differential scanning calorimetry; format: physicochemical; details: for Tc (critical temperature), Pure: pure lipid
Experimental: General. Melting points for the diols and the phase transition temperature Tc for the cationic lipids were determined by differential scanning calorimetry (DSC), using a TA-Instruments Q100 DSC, and a heating rate of 5° C./minute. The IR spectra were recorded on a Nicolet Avatar 360 FTIR spectrophotometer in the range 650-4000 cm^−1 using a ZnSe—attenuated total reflectance (ATR) accessory. The compounds were solved in a small amount of solvent (MeOH for the diols, CHCl3 for the lipids), and the resulted solutions were left to evaporate to dryness on the surface of the ZnSe crystals of the ATR accessory. The NMR spectra were recorded at ≈303 K with a Varian Inova spectrometer equipped with a 5 mm indirect detection probe, operating at 500 MHz for ^1H-NMR and at 125 MHz for ^13C-NMR. Chemical shifts are reported as δ values, using TMS as internal standard for proton spectra and the solvent resonance for carbon spectra. Assignments were made based on signal intensity, selective decoupling, COSY (^1H-^1H) and HETCOR (^1H-^13C) sequences. Elemental analyses were performed by combustion, using a Perkin Elmer 2400 Series II CHNS analyser.
(§1) Dioleoylphosphatidylethanolamine (DOPE), cholesterol (CHOL), N-(2,3-dioleoyloxypropyl)-N,N,N-trimethylammonium chloride (DOTAP) were commercial products. The purity of the lipids was checked by thin layer chromatography and also by differential scanning calorimetry (DSC), which was also used for determining the critical temperature Tc. For the preparation of the liposomes a protocol optimized for this type of compounds was adopted as follows. The cationic lipid (with or without helper lipid) was dissolved in chloroform/methanol (2/1, v/v) to reach a final concentration of 1 mM for the charged species. From this stock solution 50 μL were aliquoted in a 1 mL tube and the solvent was evaporated in a SpeedVac evaporator, under vacuum, for 1 h. The dried lipid film was prepared by removing the traces of organic solvent in a dessicator, over Drierite®, under vacuum, overnight. The film was hydrated with 500 μL sterile phosphate buffer saline (PBS) the tube was purged with sterile N2, and vortexed for 1 minute. The liposomes were generated by sonicating the tube in a water bath sonicator for 5-30 minutes at 62° C. and at 37° C. for DOTAP. After sonication the preparations were allowed to reach room temperature.
Materials and Methods. Melting points for the diols, acetates and ketals were determined on a Boetius heating plate microscope and are uncorrected. For the cationic lipids 21 and 25 the phase transition temperature Tc was determined by differential scanning calorimetry (DSC), using a TA-Instruments Q100 DSC, and a heating rate of 5° C./minute. The IR spectra were recorded on a Nicolet Avatar 360 FTIR spectrophotometer, in the range 650-4000 cm^−1, using a ZnSe—attenuated total reflectance (ATR) accessory. The compounds were solved in a small amount of solvent (MeOH for the diols, CHCl3 for the esters), the resulted solutions being left to evaporate to dryness on the surface of the ZnSe crystals of the ATR accessory. This technique was imposed by the poor results obtained in transmission mode for some of the compounds, due to the lack of crystallization, hygroscopicity and other problems related with working with KBr pellets. The NMR spectra were recorded at ≈303 K with a Varian Gemini 300BB spectrometer operating at 300 MHz for ^1H and at 75 MHz for ^13C. Chemical shifts are reported as δ values, using TMS as internal standard for proton spectra and the solvent resonance for carbon spectra: 77.00 ppm in CDCl3, 39.50 ppm in DMSO-d6, the line from 123.50 ppm in pyridine-d5, 62.80 ppm in nitromethane-d3, 30.10 ppm in dimethylformamide-d7. Assignments were made based on signal intensity, selective decoupling and COSY (^1H-^1H) and HETCOR (^1H-^13C) sequences. Nitrogen elemental analysis was performed by combustion, mixing the samples with small amounts of quartz sand.

[2] = test system: lung cancer cell line NCI-H23; assay: Luciferase (pGL3) transfection efficiency of lipoplexes, NCI-H23; format: cell-based, human; details: for transfection efficiency, counterion study: 5Myr/Chol 1:1, PBS, sonicated two sequences of 15 minutes, FIG. 5; for transfection efficiency (in words): cholesterol as helper lipid 1:1, charge ratio lipid/DNA 2:1
Experimental: (§2) The three series of cationic lipids newly synthesized were assessed for their transfection efficiency in vitro, using the experimental conditions optimized in a previous study.^23 Essentially the cationic lipids were mixed with cholesterol at a 1:1 molar ratio, dissolved in chloroform/methanol and dried under vacuum to generate a lipid film. The dried lipid film was hydrated with sterile phosphate buffer isotonic saline with pH=7.4 (PBS) and sonicated to yield cationic liposomes. The resulting liposomal solution was allowed to react with a DNA solution to form the final cationic lipid-DNA complexes (lipoplexes), which were assessed for transfection efficiency using different cell cultures. We used a pGL3 plasmid (Promega, Madison, Wisc.), encoding a firefly luciferase gene under the control of the constitutively active SV40 promoter as the reporter for the transfection efficiency. An optimal^23 electrostatic charge ratio cationic lipid/DNA of 2:1 was used in all preparations. […] The ability of these new cationic lipids to generate relatively small cationic liposomes could be attributed to the relatively large curvature radius induced in the bilayer by the bulky pyridinium cationic head.
as §1
For generating the lipoplexes, 1.4-2.8 μL plasmid DNA solution (0.5 μg/μL) was diluted with 100 μL Optimem®. A liposome solution was prepared separately by diluting the initial liposomal stock solution (0.1 mM in cationic lipid) with Optimem® in specified proportions, to reach a final volume of 50 μL. Over this liposome solution 50 μL of the DNA stock solution was added, the tube was incubated for 30 minutes at room temperature and then the content diluted with 500 μL Optimem® (final volume of the lipoplex stock solution: 600 μL).
The lipoplexes was tested for their transfection properties over five different cancer cell lines—breast carcinoma (MCF-7 and MDA-Mb231), lung carcinoma (NCI-H23), prostate carcinoma (DU-145) and brain carcinoma (SWB-95). The cells were maintained in 10% fetal bovine serum (FBS)—enriched RPMI 1640 at 37° C. and 5% CO2 in a humidified atmosphere. Twenty-four hours prior to transfection the cells were transferred in 96-wells microtiter plate at a density of 20,000 cells/well. Each well received 100 μL medium and the plate was incubated in the same conditions. All experiments were done in triplicate or quadruplicate.
Immediately before transfection the medium was removed from each well and the cells were briefly washed with 200 μL sterile PBS. After removal of the PBS each well received 100 μL lipoplex stock solution and the plate was placed in the incubator for 1 hour. Then, 100 μL medium was added to each well and the plate was incubated for 24 hours. […]

[3] = test system: cancer cell line NCI-H23; assay: WST-1 viability assay of transfected cells; format: cell-based, human; details: for cytotoxicity (WST-1 viability): NCI-H23 transfected with lipoplexes, Chol 1:1, FIG. 6
Experimental: FIG. 6. Viability assay results for the cancer cell line NCI-H23 transfected with 5AMyr-5EMyr and DOTAP (Cl^−)-based lipoplexes. The other characteristics were the same as in the transfection experiment represented in FIG. 5.
In order to assess the cytotoxicity associated with every anion, a WST-1^28 viability assay was conducted in parallel.

[4] = test system: lung cancer cell line NCI-H23; assay: Luciferase (pGL3) transfection efficiency of lipoplexes, NCI-H23; format: cell-based, human; details: exposure from one hour to three hours; data not shown
[5] = Cationic liposome size by dynamic light scattering; format: physicochemical
Experimental: as §2, §1

[6] = cholesterol at 1:1 molar ratio to cationic lipid
[7] = molar ratio of cholesterol to lipid halved

Structure (SMILES)	Tc (critical temperature), Pure [1] [°C]	Tc (critical temperature), With cholesterol (1:1 molar ratio) ([1]; 1:1 molar ratio) [°C]	cytotoxicity (WST-1 viability) [3]	transfection efficiency (in words) [2]	also measured
CCCCCCCCCCCCCC(=O)OCC(COC(=O)CCCCCCCCCCCCC)[n+]1c(C)cc(C)cc1C.[O-][Cl+3]([O-])([O-])[O-] [Lipid 5BMyr, 1-(1,3-dimyristoyloxypropane-2-yl)-2,4,6-trimethylpyridinium perchlorate]	60.2	58.4	more cytotoxic		transfection efficiency, counterion study [2]: most efficient lipoplexes
CCCCCCCCCCCCCC(=O)OCC(COC(=O)CCCCCCCCCCCCC)[n+]1c(C)cc(C)cc1C.[Cl-] [Lipid 5DMyr, 1-(1,3-dimyristoyloxypropane-2-yl)-2,4,6-trimethylpyridinium chloride]	76.3	81.2	minimum cytotoxicity; also recorded: lower cytotoxic effect		transfection efficiency on longer cell exposure to lipoplexes [4]: higher transfection efficiencies; transfection efficiency, counterion study [2]: surpassed DOTAP in transfection efficiency; cytotoxic effect on longer cell exposure to lipoplexes ([3]; exposure from one hour to three hours, data not shown): without any visible cytotoxic effect
CCCCCCCCCCCCCC(=O)OCC(C[n+]1c(C)cc(C)cc1C)OC(=O)CCCCCCCCCCCCC.F[P-](F)(F)(F)(F)F (stereo not drawn) [Lipid 3AMyr, 1-(2,3-dimyristoyloxypropyl)-2,4,6-trimethylpyridinium hexafluorophosphate]	121.3	112.5		highest transfection peaks	Tc (critical temperature), With DOPE (1:1 molar ratio) ([1]; with DOPE, 1:1 molar ratio): 107.7 °C; average size of the cationic vesicles [5, 6]: 132 nm; average size of the cationic vesicles [5, 7]: 89 nm
CCCCCCCC/C=C\CCCCCCCC(=O)OCC(COC(=O)CCCCCCC/C=C\CCCCCCCC)[n+]1c(C)cc(C)cc1C.F[P-](F)(F)(F)(F)F [Lipid 5AOle, 1-(1,3-dioleoyloxypropane-2-yl)-2,4,6-trimethylpyridinium hexafluorophosphate]	17.0	31.0		low transfection efficiency	
CCCCCCCCCCCC(=O)Oc1ccc(CC[n+]2c(C)cc(C)cc2C)cc1OC(=O)CCCCCCCCCCC.F[P-](F)(F)(F)(F)F [Lipid 7ALau, 1-(3,4-dilauroyloxyphenylethyl)-2,4,6-trimethylpyridinium hexafluorophosphate]	140.7	126.9		best transfection efficiency	transfection efficiency relative to another derivative of series 7 ([2]; cholesterol 1:1, FIG. 2): about five times more active than the decanoyl derivative 7ACpc; also recorded: about ten times more efficient than the oleoyl derivative 7AOle
CC(=O)OCC(COC(C)=O)[n+]1c(C)cc(C)cc1C.F[B-](F)(F)F					melting point: 110 to 111 °C
CC(=O)OCC(C[n+]1c(C)cc(C)cc1C)OC(C)=O.F[B-](F)(F)F (stereo not drawn)					melting point: 119 to 120 °C
CCCCCCCC/C=C\CCCCCCCC(=O)OCC(C[n+]1c(C)cc(C)cc1C)OC(=O)CCCCCCC/C=C\CCCCCCCC.F[P-](F)(F)(F)(F)F (stereo not drawn) [Lipid 3AOle, 1-(2,3-dioleoyloxypropyl)-2,4,6-trimethylpyridinium hexafluorophosphate]	67.9	58.5		secondary peak	average size of the cationic vesicles [5, 6]: 113 nm; average size of the cationic vesicles [5, 7]: 103 nm
CCCCCCCCCCCCCC(=O)OCC(COC(=O)CCCCCCCCCCCCC)[n+]1c(C)cc(C)cc1C.[I-] [Lipid 5EMyr, 1-(1,3-dimyristoyloxypropane-2-yl)-2,4,6-trimethylpyridinium iodide]	60.8	80.1	more cytotoxic		transfection efficiency, counterion study [2]: followed by the hexafluorophosphate 5AMyr, chloride 5DMyr, tetrafluoroborate 5CMyr, and iodide 5EMyr
CCCCCCCCCCCCCC(=O)OCC(COC(=O)CCCCCCCCCCCCC)[n+]1c(C)cc(C)cc1C.F[B-](F)(F)F [Lipid 5CMyr, 1-(1,3-dimyristoyloxypropane-2-yl)-2,4,6-trimethylpyridinium tetrafluoroborate]	58.4	55.2	minimum cytotoxicity		
CCCCCCCC(=O)Oc1ccc(CC[n+]2c(C)cc(C)cc2C)cc1OC(=O)CCCCCCC.F[P-](F)(F)(F)(F)F [Lipid 7ACpy, 1-(3,4-dioctanoyloxyphenylethyl)-2,4,6-trimethylpyridinium hexafluorophosphate]	134.1	127.3			
CCCCCCCCCCCC(=O)OCC(COC(=O)CCCCCCCCCCC)[n+]1c(C)cc(C)cc1C.F[P-](F)(F)(F)(F)F [Lipid 5ALau, 1-(1,3-dilauroyloxypropane-2-yl)-2,4,6-trimethylpyridinium hexafluorophosphate]	58.2	41.9			
CCCCCCCC/C=C\CCCCCCCC(=O)OCC(C[n+]1c(C)cc(C)cc1C)OC(=O)CCCCCCC/C=C\CCCCCCCC.[O-][Cl+3]([O-])([O-])[O-] (stereo not drawn) [Lipid 21AaO, 1-(2,3-Dioleoyloxypropyl)-2,4,6-trimethylpyridinium perchlorate]					Tc (phase transition temperature) ([1]; lipids 21 and 25, DSC, heating rate 5° C./minute): 57 °C
